The values below come from patent US9550811B2, “Peptide scaffold design” (BIONOR IMMUNO AS, priority 2010, dated 2017).

The subject of one assay is DC-cells. Put plainly: Cell penetration assay: staining for biotinylated peptides, dendritic cells gated as CD11c+. It is filed as cell-based, human. Particulars: low concentration of peptides (208 uM). Here is the method:
A set of peptides were biotinylated on N-terminal, and different combinations of aminoacids, with respect to length and type, were added to the sequence box X^1, X^3 and X^4 in the peptides as illustrated by the diagram below. The peptides were tested on cells grown from one individual blood donor.
96-well U-bottom polystyrene plates (NUNC, cat no: 163320) were used for staining of human PBMCs. Briefly, 8 ul of N- or C-terminally biotinylated peptides according to table 1 or table 2 (i.e. 5 mM, 2.5 mM & 1.25 mM tested for each peptide) were incubated at 37° C. for 2 h with 40 ul of PBMC (12.5×10^6 cells/ml) from blood donors. Cells were then washed 3× with 150 ul of Cellwash (BD, cat no: 349524), followed by resuspension of each cell pellet with 100 ul of Trypsin-EDTA (Sigma, cat no: T4424), then incubated at 37° C. for 5 min. Trypsinated cells were then washed 3× with 150 ul of Cellwash (BD, cat no: 349524), followed by resuspension with BD Cytofix/Cytoperm™ plus (BD, cat no: 554715), then incubated at 4° C. for 20 min according to manufacturer. Cells were then washed 2× with 150 ul PermWash (BD, cat no: 554715). Cells were then stained with Streptavidin-APC (BD, cat no: 554067) & Anti-hCD11c (eBioscience, cat no: 12-0116) according to manufacturer at 4° C. for 30 min aiming to visualize biotinylated peptides & dendritic cells, respectively. Cells were then washed 3× with 150 ul PermWash, followed by resuspension in staining buffer (BD, cat no: 554656) before flow cytometry. Dendritic cells were gated as CD11c+ events outside lymphocyte region (i.e. higher FSC & SSC signals than lymphocytes). 200 000 total cells were acquired on a FACSCanto II flow cytometer with HTS loader, and histograms for both total cells & dendritic cells with respect to peptide-fluorescence (i.e. GeoMean) were prepared.
As shown in table 4 the peptides according to the invention had the ability to allocate through the cell membrane.

The test system of a further assay is human PBMCs. Type of assay: cell-based. Particulars: for Geomean value (peptide-fluorescence): With Cytofix/Cytoperm and trypsination, BC20.

Read-outs that look alike come from different tables or passages of the source. Where no end group is shown, it is not given here. [ ]: non-standard residue; d: D form. Nle = CCCC[C@H](N)C(=O)O

BRGLEPLVIAGILARRGSLVGLLHIVL [BI100260]: in the assay with DC-cells (BC 16), the “Results on DC-cells (geomean peptide-fluorescence)” value (“Results on DC-cells” for short) turned out to be 47846. Still for that read-out and setting: with BRGSDPLVVAASIVRRASIVGILHLIL [BI100260b] the figure was 37702.

Regarding BRGYIPLVGAPLGRRVARALAHGVRV [SP7], the “Results on DC-cells” value is 16064 in the assay on DC-cells (BC 16) and 21414 in the assay on DC-cells (BC43). Besides, the “Geomean value (peptide-fluorescence)” value with human PBMCs (concentration 104 μM) was found to be 2766; in the assay on human PBMCs (concentration 208 μM), 10481; in the assay on human PBMCs (concentration 417 μM), 30503; with human PBMCs (concentration 833 μM), 47922. As to BRGYIPLVGAPLGRRVARALAHGVRV [SP7_c], the figures for the “Results on DC-cells” value in the assay with DC-cells (BC 16) and in the assay with DC-cells (BC43) were 20041 and 11832, respectively. In the same order, the values of BRIAYERMCNILLBRGKFQTAAQRA [190b] are 12391 and 20444.

BRLIFLARSALILBGRSALILRGSVAHK [120b]: the “Results on DC-cells” value in the assay on DC-cells (BC 16) is on record as 44185. With BRLIFLARSALIVRGSVAHKS [100-12], the “Results on DC-cells” value in the assay on DC-cells (BC 16) stood at 24792; in the assay on DC-cells (BC43) it was 45622. In the same order, the values of “BRRLFFKTITRLFBHGLRRLLSTEGVPNSZ [BI10026]” are 65196 and 43536.

Turning to BRTAYERZCNILBRGRFQTVVQBA [compound 17], the “Intracellular staining, median” value in the assay with human PBMCs is recorded as 20.77. Turning to BRTAYERZCNILBRGRFQTVVQBA [compound 190], the “Results on DC-cells” value in the assay with DC-cells (BC 16) is 12906. With EDLIFLARSALILRGSVAHKS [100-22b], the “Results on DC-cells” value in the assay on DC-cells (BC 16) was determined as 43537; in the assay with DC-cells (BC43), 28780. As to EEGYIPLVGAPLGEEVARALAHGVRV [SP14], the “Results on DC-cells” value in the assay on DC-cells (BC 16) is listed as 3704; in the assay with DC-cells (BC43), 1629. Further, the “Geomean value (peptide-fluorescence)” value in the assay with human PBMCs (concentration 104 μM) was 62; in the assay on human PBMCs (concentration 208 μM), 392; in the assay with human PBMCs (concentration 417 μM), 682; with human PBMCs (concentration 833 μM), 1059.

As for GGGQIVGGVYLLPRRGPRLGVRATR [310-11n], the “Results on DC-cells” value with DC-cells (BC 16) is 5436. In the case of GYIPLVGAPLGGVARALAHGVRV [51n], the results for the “Results on DC-cells” value in the assay on DC-cells (BC 16) and in the assay on DC-cells (BC43) were 5551 and 7721, respectively. For the sequence “GYIPLVGAPLGGVARALAHGVRV [SP1_C] (GYIPLVGAPLGGVARALAHGVRV-NH2)”, in the assay on DC-cells (BC 16), the “Results on DC-cells” value was found to be 9234.

As for IAYERMCNILKGKFQTAAQRA [190n], the “Results on DC-cells” value was determined as 18616 with DC-cells (BC 16) and 23383 with DC-cells (BC43).

Turning to KALGPAATLEEMMTACQGVG [N13], the “Results on DC-cells” value with DC-cells (BC 16) turned out to be 7982; in the assay on DC-cells (BC43), 5953. Taken in the same sequence, the figures for “KKGYIPLVGAPLGKKVARALAHGVRV [SP11_c] (KKGYIPLVGAPLGKKVARALAHGVRV-NH2)” were 5371 and 7878. In the same order, the values of LFFKCIYRLFKHGLKRGPSTEGVPESM [BI10024b] are 26892 and 13002. As for PEVIPMFSALSEGATPQDLNTMLN [N10], the “Results on DC-cells” value in the assay on DC-cells (BC 16) is 4597. With “RFIIPXFTALSGGRRALLYGATPYAIG (RFIIP[Nle]FTALSGGRRALLYGATPYAIG) [V10]”, the “Results on DC-cells” value with DC-cells (BC 16) is recorded as 45430.

As to “RGYIPLVGAPLGKKKVARALAHGVRV [SP9_c] (RGYIPLVGAPLGKKKVARALAHGVRV-NH2)”, the “Results on DC-cells” value with DC-cells (BC 16) is on record as 6180; with DC-cells (BC43) it was 7758. In the same order, the values of RGYIPLVGAPLGRRRVARALAHGVRV [SP4_c] are 20673 and 30786. With “RGYIPLVGAPLGRRRVARALAHGVRV [SP10_c] (RGYIPLVGAPLGRRRVARALAHGVRV-NH2)”, the “Results on DC-cells” value in the assay on DC-cells (BC 16) is 6904. In the case of “RGYIPLVGAPLGRRVARALAHGVRV [SP3_c] (RGYIPLVGAPLGRRVARALAHGVRV-NH2)”, the entries for the “Results on DC-cells” value with DC-cells (BC 16) and in the assay on DC-cells (BC43) were 18505 and 26308, respectively. Taken in the same sequence, the figures for “RGYIPLVGAPLGRRVARALAHGVRV [SP24] (RGYIPLVGAPLGRRVARALAHGVRV-NH2)” were 18181 and 63639.

Turning to RNIVPZVVTARRNIVPZVVTAB [BI-050sc5], the “Results on DC-cells” value came to 13648 with DC-cells (BC 16) and 15549 in the assay on DC-cells (BC43). As to RNLVPMVATVBRRNLVPMVATVB [BI-050sc2], the entries for the “Results on DC-cells” value in the assay with DC-cells (BC 16) and with DC-cells (BC43) were 6019 and 11584, respectively.

In the case of RNLVPMVATVBRRNLVPMVATVB [compound 18], the “Intracellular staining, median” value in the assay on human PBMCs was 3.86. In the case of RNLVPMVATVRRNLVPMVATVB [BI-050sc1], the “Results on DC-cells” value in the assay with DC-cells (BC 16) came out at 6056; with DC-cells (BC43), 6160. Take “RRGGGQIVGGVYLLPRRGPRLGVRATR [310-11-n-sc]”: in the assay on DC-cells (BC 16), the “Results on DC-cells” value was determined as 25236. Take RRGYIPLVGAPLGBGRVARALAHGVRV [SP2_c]: the entries for the “Results on DC-cells” value in the assay on DC-cells (BC 16) and with DC-cells (BC43) were 323 and 13341, respectively. With RRGYIPLVGAPLGLRRVARALAHGVRV [SP17_c], in the assay on DC-cells (BC 16), the “Results on DC-cells” value was 11830. Turning to “RRGYIPLVGAPLGRRRVARALAHGVRV [SP6_c] (RRGYIPLVGAPLGRRRVARALAHGVRV-NH2)”, the “Results on DC-cells” value in the assay with DC-cells (BC 16) stood at 17964; in the assay on DC-cells (BC43), 38487. Taken in the same sequence, the figures for “RRGYIPLVGAPLGRRVARALAHGVRV [SP5_c] (RRGYIPLVGAPLGRRVARALAHGVRV-NH2)” were 16908 and 24403. In the same order, the values of RRNYVTGNIPGBRGITFSIFLIVS [SP61_2] are 128330 and 150491.

For the sequence RRRGYIPLVGAPLGBRVARALAHGVRV [SP8_c], the “Results on DC-cells” value with DC-cells (BC 16) turned out to be 9159; with DC-cells (BC43), 23763. On to RRVTGNIPGSTYSGBRGITFSIYLIVS [SP25], for which, in the assay on DC-cells (BC 16), the “Results on DC-cells” value was 11552. As to SAYERMCNILKGKFQTAAQRAMM [18b], the entries for the “Results on DC-cells” value in the assay with DC-cells (BC 16) and in the assay on DC-cells (BC43) were 29740 and 33597, respectively. As to “WGYIPLVGAPLGRRVARALAHGVRV [SP12_c] (WGYIPLVGAPLGRRVARALAHGVRV-NH2)”, the “Results on DC-cells” value with DC-cells (BC 16) came to 37100; in the assay on DC-cells (BC43) it was 43386. As to WWGGGQIVGGVYLLPRRGPRLGVRAT [SP11b_1], the “Results on DC-cells” value in the assay on DC-cells (BC 16) came to 64047.

WWGYIPLVGAPLGRRRVARALAHGVRV [SP22]: the entries for the “Results on DC-cells” value with DC-cells (BC 16) and in the assay with DC-cells (BC43) were 61597 and 18624, respectively. For the sequence “WWGYIPLVGAPLGRRVARALAHGVRV [SP13_c] (WWGYIPLVGAPLGRRVARALAHGVRV-NH2)”, the “Results on DC-cells” value in the assay with DC-cells (BC43) was 60307. In the case of “WWGYIPLVGAPLGRRVARALAHGVRV [SP21] (WWGYIPLVGAPLGRRVARALAHGVRV-NH2)”, the “Results on DC-cells” value in the assay with DC-cells (BC 16) came out at 26525; with DC-cells (BC43), 4294. Take WWGYIPLVGAPLGRVARALAHGVRV [SP23]: the “Results on DC-cells” value stood at 17084 in the assay on DC-cells (BC 16) and 12801 in the assay with DC-cells (BC43). On to WWGYLPAVGAPIRRVIRVIAHGLRL [SP51_1*], for which the “Results on DC-cells” value in the assay with DC-cells (BC 16) is 66582. For the sequence WWIRNLGRVIETLTRRLZGYIPLIGA [SP42_1], the “Results on DC-cells” value with DC-cells (BC 16) turned out to be 73973. In the case of WWNYVTGNIPGBRGITFSIFLIVS [SP61_3], the “Results on DC-cells” value came out at 47182 in the assay on DC-cells (BC 16) and 36803 in the assay with DC-cells (BC43).

WWNYVTGNIPGRRGITFSIFLIVS [SP61_4]: the “Results on DC-cells” value in the assay with DC-cells (BC 16) stood at 12829.

Regarding WWSRNLGKVIDTLTCRRLMGYIPLVGA [SP42b_1], the “Results on DC-cells” value with DC-cells (BC 16) is 17628.

Take “YGRKKRRQRRR [compound 4, Positive control (tat), reference compound]”: the “Intracellular staining, median” value in the assay on human PBMCs is given as 4.43.
